The source made the active and inactive calls. The rule behind the calls is not given here.
What was measured:
Format in all cases: cell-based
[1] = target: T1, Retinoic acid receptor alpha (Homo sapiens) (UniProt P10276); assay: Antagonist activity at RARalpha in human MCF7 cells assessed as inhibition of ATRA-induced luciferase activity at 0.1 to 1 nM after 48 hrs by luciferase reporter gene assay
T1 sequence (whole entry): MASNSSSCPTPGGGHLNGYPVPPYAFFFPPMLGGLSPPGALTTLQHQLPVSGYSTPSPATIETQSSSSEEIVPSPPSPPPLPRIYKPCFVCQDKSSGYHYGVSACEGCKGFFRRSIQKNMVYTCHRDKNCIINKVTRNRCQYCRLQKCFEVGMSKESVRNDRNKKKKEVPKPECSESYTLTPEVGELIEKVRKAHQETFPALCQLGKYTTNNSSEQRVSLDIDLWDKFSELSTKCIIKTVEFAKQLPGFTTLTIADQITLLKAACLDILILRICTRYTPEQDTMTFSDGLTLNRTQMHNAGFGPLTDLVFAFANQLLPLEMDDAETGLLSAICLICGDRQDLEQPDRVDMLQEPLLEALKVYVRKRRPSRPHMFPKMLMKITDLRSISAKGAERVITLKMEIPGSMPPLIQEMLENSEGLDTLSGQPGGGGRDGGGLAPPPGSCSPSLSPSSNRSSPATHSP

[2] = target: T1, Retinoic acid receptor alpha (Homo sapiens); assay: Antagonist activity at RARalpha in human MCF7 cells assessed as inhibition of ATRA-induced luciferase activity at 10 nM after 48 hrs by luciferase reporter gene assay
[3] = target: T1, Retinoic acid receptor alpha (Homo sapiens); assay: Antagonist activity at RARalpha in human MCF7 cells assessed as inhibition of ATRA-induced luciferase activity after 48 hrs by luciferase reporter gene assay

| inhibition [1] | inhibition [2] | inhibition [3] | SMILES |
| --- | --- | --- | --- |
| Active |  |  | Cc1ccc(C2=CC(C)(C)Oc3c(Br)cc(C(=O)Nc4ccc(C(=O)O)c(F)c4)cc32)cc1 |
|  | Active | Dose-dependent effect | Cc1ccc(C2=CC(C)(C)Oc3c(Br)cc(C(=O)Nc4ccc(C(=O)O)cc4)cc32)cc1 |

— ChEMBL document CHEMBL2375355, “Practical synthesis of a chromene analog for use as a retinoic acid receptor alpha antagonist lead compound” (Eur J Med Chem, 2013)
